Results as given in ChEMBL document CHEMBL1201862, “PubChem BioAssay data set” (2004).
Calls of active or inactive are those of the source.

Assays:
[1] = target: Cytochrome P450 2C9 (Homo sapiens, UniProt P11712)
[2] = target: T1, Caspase-3 (Homo sapiens, UniProt P42574); format: functional;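 note: Dose-response selectivity test against caspase-3 for candidate inhibitors of sentrin-specific proteases (SENPs)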
T1 sequence (P42574 whole entry): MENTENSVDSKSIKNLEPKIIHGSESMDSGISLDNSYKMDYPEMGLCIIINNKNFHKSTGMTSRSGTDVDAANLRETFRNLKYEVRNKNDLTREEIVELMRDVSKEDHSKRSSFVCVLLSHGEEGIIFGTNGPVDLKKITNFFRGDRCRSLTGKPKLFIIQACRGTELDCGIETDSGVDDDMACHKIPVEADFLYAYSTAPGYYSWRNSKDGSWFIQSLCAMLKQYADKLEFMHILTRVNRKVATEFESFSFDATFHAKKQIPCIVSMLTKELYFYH

[3] = target: T2, Sentrin-specific protease 7 (Homo sapiens, UniProt Q9BQF6); format: functional;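 note: Luminescence-based dose-response confirmation of ultra-high-throughput screening hits, measuring inhibition of SENP7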
T2 sequence (Q9BQF6 whole entry): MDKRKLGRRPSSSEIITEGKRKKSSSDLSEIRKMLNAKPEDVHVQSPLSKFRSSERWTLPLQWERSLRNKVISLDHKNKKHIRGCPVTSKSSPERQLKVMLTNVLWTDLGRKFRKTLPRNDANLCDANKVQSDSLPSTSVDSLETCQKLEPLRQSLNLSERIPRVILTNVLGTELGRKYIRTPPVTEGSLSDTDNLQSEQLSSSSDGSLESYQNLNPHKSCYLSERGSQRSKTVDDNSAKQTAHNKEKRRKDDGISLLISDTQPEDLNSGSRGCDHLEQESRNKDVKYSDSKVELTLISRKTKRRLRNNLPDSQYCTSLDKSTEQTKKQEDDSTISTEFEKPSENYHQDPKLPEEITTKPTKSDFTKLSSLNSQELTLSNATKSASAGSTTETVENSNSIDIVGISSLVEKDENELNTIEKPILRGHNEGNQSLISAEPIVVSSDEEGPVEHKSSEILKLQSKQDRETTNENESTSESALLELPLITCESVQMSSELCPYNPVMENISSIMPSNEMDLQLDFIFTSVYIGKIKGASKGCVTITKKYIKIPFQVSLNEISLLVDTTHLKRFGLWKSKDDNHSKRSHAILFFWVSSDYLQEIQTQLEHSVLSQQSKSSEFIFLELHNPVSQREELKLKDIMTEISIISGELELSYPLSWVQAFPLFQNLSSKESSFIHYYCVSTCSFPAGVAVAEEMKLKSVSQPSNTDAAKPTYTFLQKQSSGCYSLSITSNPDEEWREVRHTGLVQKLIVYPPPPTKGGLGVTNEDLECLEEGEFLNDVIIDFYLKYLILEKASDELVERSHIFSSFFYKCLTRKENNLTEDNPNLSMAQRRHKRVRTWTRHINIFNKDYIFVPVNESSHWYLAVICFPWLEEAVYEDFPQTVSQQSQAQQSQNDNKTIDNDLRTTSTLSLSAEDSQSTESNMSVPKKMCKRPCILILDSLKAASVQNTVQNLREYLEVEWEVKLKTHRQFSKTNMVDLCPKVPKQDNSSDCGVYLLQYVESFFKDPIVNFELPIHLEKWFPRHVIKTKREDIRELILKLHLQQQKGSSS

[4] = target: T3, Microphthalmia-associated transcription factor (Homo sapiens, UniProt O75030); assay: reducers of TRPM1 reporter luminescence, concentration series – cell-based, SK-MEL-5, cherry-picked, set 3, MITF inhibitor project, dose response (AID 493073); format: functional;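 note: SK-MEL-5 melanoma cells with luciferase driven by the MITF target TRPM1 promoter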
T3 sequence (O75030 whole entry): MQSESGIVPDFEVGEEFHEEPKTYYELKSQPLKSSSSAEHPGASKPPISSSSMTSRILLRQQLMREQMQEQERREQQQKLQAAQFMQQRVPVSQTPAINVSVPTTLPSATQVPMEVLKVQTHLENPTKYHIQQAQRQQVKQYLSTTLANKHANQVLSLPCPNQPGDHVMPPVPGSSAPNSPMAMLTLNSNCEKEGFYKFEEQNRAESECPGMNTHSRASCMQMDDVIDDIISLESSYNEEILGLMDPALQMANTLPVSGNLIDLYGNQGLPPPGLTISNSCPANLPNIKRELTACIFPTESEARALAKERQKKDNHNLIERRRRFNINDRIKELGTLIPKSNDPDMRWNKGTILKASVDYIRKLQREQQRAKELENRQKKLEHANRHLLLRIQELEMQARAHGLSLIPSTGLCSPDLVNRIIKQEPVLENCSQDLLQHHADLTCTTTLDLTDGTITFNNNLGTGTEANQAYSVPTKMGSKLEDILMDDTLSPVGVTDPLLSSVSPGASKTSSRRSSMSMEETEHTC

[5] = target: Induced myeloid leukemia cell differentiation protein Mcl-1 (Homo sapiens, UniProt Q07820); format: functional
[6] = target: T4, Endoribonuclease toxin MazF (Escherichia coli K-12, UniProt P0AE70); assay: activation of MazEF endoribonuclease cleavage – biochemical, fluorescence, single-stranded RNA substrate, uHTS hits, dose response (AID 588481); format: functional
T4 sequence (P0AE70 whole entry): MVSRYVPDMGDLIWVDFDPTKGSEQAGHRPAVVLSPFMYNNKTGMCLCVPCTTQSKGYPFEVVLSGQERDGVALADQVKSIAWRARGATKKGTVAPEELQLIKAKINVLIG

[7] = target: T4, Endoribonuclease toxin MazF; assay: substrate-only fluorescence increase artefacts – biochemical, single-stranded RNase substrate, counter-screen for MazEF activator project, dose response (AID 588502); format: functional
[8] = target: Acetyl-CoA acetyltransferase/HMG-CoA reductase (Enterococcus faecalis, UniProt Q9FD70); assay: class II HMG-CoA reductase inhibition potency – biochemical, Enterococcus faecalis, confirmation (AID 1233); format: functional

Sequence of Induced myeloid leukemia cell differentiation protein Mcl-1 (Q07820 whole entry): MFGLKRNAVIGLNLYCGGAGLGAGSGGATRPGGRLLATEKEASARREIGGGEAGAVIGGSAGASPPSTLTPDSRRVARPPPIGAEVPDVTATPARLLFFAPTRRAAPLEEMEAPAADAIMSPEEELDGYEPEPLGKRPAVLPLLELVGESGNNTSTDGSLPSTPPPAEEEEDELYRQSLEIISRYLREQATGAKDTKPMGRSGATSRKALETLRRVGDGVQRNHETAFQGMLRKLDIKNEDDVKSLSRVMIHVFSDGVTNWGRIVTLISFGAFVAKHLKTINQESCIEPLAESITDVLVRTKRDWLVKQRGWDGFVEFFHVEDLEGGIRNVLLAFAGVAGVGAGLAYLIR
Sequence of Cytochrome P450 2C9 (P11712 whole entry): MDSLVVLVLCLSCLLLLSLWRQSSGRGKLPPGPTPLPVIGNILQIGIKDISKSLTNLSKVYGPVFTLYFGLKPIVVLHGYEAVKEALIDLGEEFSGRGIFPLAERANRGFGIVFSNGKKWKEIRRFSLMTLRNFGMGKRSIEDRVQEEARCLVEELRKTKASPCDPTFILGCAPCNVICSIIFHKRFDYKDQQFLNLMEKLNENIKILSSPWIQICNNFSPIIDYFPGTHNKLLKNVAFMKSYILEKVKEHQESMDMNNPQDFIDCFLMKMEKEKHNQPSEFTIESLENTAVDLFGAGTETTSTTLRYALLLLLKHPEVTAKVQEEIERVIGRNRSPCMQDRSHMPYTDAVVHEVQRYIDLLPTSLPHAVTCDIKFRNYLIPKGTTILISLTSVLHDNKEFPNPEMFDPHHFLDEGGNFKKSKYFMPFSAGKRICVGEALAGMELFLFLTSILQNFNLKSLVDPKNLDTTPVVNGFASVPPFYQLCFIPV

With `CC(C)=CCC1=C(OCC(=O)O)C(=O)c2ccccc2C1=O` the AC50 [1] was 3.98 µM (inconclusive), the IC50 [2] was 15 µM (active) and the IC50 [3] was 3.97 µM (active).

In the case of `Cc1cccc(NC2=C(NC(=O)c3ccccc3)C(=O)c3ccccc3C2=O)c1`, the AC50 [4] is reported as 9.99 µM (active) and the IC50 [5] is reported as 2.86 µM (active).

In the case of `Cc1[nH][nH]c(=O)c1C(c1c(C)[nH][nH]c1=O)c1cn(Cc2ccccc2Cl)c2ccccc12`, the EC50 [6] is reported as > 99 µM (inactive), the EC50 [7] is reported as > 99 µM (inactive) and the IC50 [8] is reported as 91 µM (active).
